The values below come from patent US20260021186A1, “Fatty Acid-D-Amino Acid Peptides Conjugates as Anaplerotic Compounds for Use in Treating Propionic Acidemia, Methylmalonic Acidurias, and Energy Metabolic Disorders” (University of Pittsburgh - Of the Commonwealth System of …, priority 2022, published 2026).

One assay relates to HEK293 PCCA−/− cells. As to the kind of experiment: Lysine succinylation of cellular proteins by immunofluorescence confocal microscopy. The following applies: FIGS. 9C, 9D; 30 μM and 90 μM; media without glucose, pyruvate, and glutamine. It counts as cell-based, human. As for the experimental part: FIGS. 9A-9F are a comparison of lysine succinylation of cellular proteins visualized by immunofluorescence confocal microscopy in human HEK293 control and HEK293 PCCA^−/− cells untreated (FIGS. 9A and 9B) and treated with 30 μM and 90 μM of PMA007 (FIG. 9C) or 30 μM and 90 μM of PMA010 (FIG. 9D). The cells in FIGS. 9B, 9C, and 9D were grown in media without glucose, pyruvate, and glutamine. Scale bar=20 μm. FIG. 9E is a bar graph showing the quantification of the percent change in lysine succinylation (green) signal, from the immunofluorescence confocal micrographs of FIGS. 9B and 9C, in response to the treatment of PMA007. FIG. 9F is a bar graph showing the quantification of the percent change in lysine succinylation (green) signal, from the immunofluorescence confocal micrographs of FIGS. 9B and 9D, in response to the treatment of PMA010. Asterisks indicate statistical significance calculated at the raw data level (n=3); **P<0.01. ****P<0.0001 statistically compared to untreated. Statistical analysis used T-test.
FIGS. 9A-9F are a comparison of lysine succinylation of cellular proteins visualized by immunofluorescence confocal microscopy in human HEK293 control and in untreated and treated HEK293 PCCA^−/− knock out cells. […] The PMA007 treatment data in the bar graph of FIG. 9E are the quantitation of the images of FIG. 9C compared to untreated control in FIG. 9B. […]

For assay [1], the system named is Fb859 propionic acidemia patient fibroblasts. The description is as above. The following applies: media without glucose. It counts as cell-based, human. How it is done: FIG. 7 are immunocytochemistry photomicrographs showing the effect of incubation of Fb859 propionic acidemia patient fibroblasts on for lysine succinylation with 90 μM of PMA010, 90 μM of PMA011, 90 μM of succinic acid, 90 μM of methylmalonic acid, or 90 μM adipic acid for 72 hours. Immunocytochemistry of the fibroblast cells were stained for anti-succinyllysine antibody, anti-MTCO1 antibody and DAPI for nuclei. Instrument: Zeiss LSM 710 confocal Microscopy. Magnification: 40×. The cells were grown in glass coverslips at a seeding density of 3-5×10^4 cells. The media for untreated and treatment groups had no glucose, glutamine or pyruvate, and lipid stripped FBS was included instead of regular FBS. Scale bar=20 μm.
FIGS. 8A-8F are a comparison of lysine succinylation of cellular proteins visualized by immunofluorescence confocal microscopy in a Propionic Acidemia (Fb859) patient untreated (FIG. 8A) and treated with 30 μM and 90 μM of D-Serine (FIG. 8B), 30 µM and 90 μM of PMA007 (FIG. 8C), or 30 μM and 90 μM of PMA010 (FIG. 8D). Scale bar=20 μm. FIG. 8E is a bar graph showing the quantification of the percent change in lysine succinylation (green) signal, from the immunofluorescence confocal micrographs of FIGS. 8B and 8C, in response to the treatment of D-serine and PMA007. FIG. 8F is a bar graph showing the quantification of the percent change in lysine succinylation (green) signal, from the immunofluorescence confocal micrographs of a D-Serine repeat experiment and FIG. 8D, in response to the treatment of D-serine and PMA010. Asterisks indicate statistical significance calculated at the raw data level (n=3); **P<0.01, ***P<0.001, ****P<0.0001 statistically compared to untreated. Statistical analysis used T-test.
Immunohistochemistry: Patient cells were grown in glass coverslips at a seeding density of 3-5×10^4 cells. The media for untreated and treatment groups had no glucose, glutamine or pyruvate, and lipid stripped FBS was included instead of regular FBS. NIH Image J software was used to quantify the fluorescence intensity from 50-60 cells per group. Immunocytochemistry of propionic acidemia patient (Fb859) fibroblast cells lines stained for anti-succinyllysine (Green), anti-MTCO1 (Red), or anti-TOMM20 antibodies, and DAPI (Blue) for nuclei. Instrument: Zeiss LSM 710 confocal Microscopy. Statistical analysis used Tukey multiple range test. ****P<0.0001, [PMA010] (90 μM) treatment group statistically compared to control cells grown in the presence of regular complete DMEM media, untreated and [PMA010] (30 μM) cells grown in the absence of glucose/pyruvate/L-glutamine.

For `C[C@@H](NC(=O)CCCCC(=O)O)C(=O)N[C@H](Cc1c[nH]cn1)C(=O)O` [PMA010, 6-(((R)-1-(((R)-1-carboxy-2-(1H-imidazol-4-yl)ethyl)amino)-1-oxopropan-2-yl)amino)-6-oxohexanoic acid], the “lysine succinylation (green) signal” value with HEK293 PCCA−/− cells is “green color was restored”; in assay [1] (FIGS. 8A-8F, 30 μM and 90 μM, pyruvate, glutamine, stripped FBS) it was “Restoration of lysine succinylation (green) signal”. The “lysine succinylation (green staining) compared to untreated cells” value in assay [1] (FIG. 7, 90 μM, 72 hours, glutamine or pyruvate, lipid stripped FBS) was “obvious increase in the green staining”.
